Series [1] has as its target T1, Equilibrative nucleoside transporter 4 (Homo sapiens, UniProt Q7RTT9).
T1 sequence (Q7RTT9 whole entry): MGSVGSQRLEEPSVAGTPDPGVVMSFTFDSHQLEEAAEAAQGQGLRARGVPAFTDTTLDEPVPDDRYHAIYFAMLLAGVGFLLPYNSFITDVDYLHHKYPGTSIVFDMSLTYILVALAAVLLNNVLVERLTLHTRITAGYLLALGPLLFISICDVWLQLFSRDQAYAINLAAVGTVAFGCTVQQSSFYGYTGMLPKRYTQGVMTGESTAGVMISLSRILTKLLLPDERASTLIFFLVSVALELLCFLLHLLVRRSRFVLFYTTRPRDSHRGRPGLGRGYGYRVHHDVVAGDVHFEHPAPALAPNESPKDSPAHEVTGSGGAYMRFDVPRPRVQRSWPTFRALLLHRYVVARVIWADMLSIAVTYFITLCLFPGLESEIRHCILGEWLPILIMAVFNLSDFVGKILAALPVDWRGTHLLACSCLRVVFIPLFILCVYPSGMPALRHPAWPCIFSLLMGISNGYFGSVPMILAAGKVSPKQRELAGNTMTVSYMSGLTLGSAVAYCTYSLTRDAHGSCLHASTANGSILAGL
The experiment in a line: Induction of human PMAT activity expressed in Xenopus laevis oocytes assessed as induction of inward current at 2.5 mM in NaCl buffer at pH 7.5 by two-microelectrode voltage-clamp method. It counts as cell-based. Conditions: pH 7.5, 2500 µM.

For series [2], the target named is T1, Equilibrative nucleoside transporter 4. The experiment in a line: Induction of human PMAT activity expressed in Xenopus laevis oocytes assessed as induction of inward current at 2.5 mM in NaCl buffer at pH 6 by two-microelectrode voltage-clamp method. The settings on record: pH 6, 2500 µM. It counts as cell-based.
Series [3] addresses T2, PMAT (equilibrative nucleoside transporter 4) (Homo sapiens, UniProt Q7RTT9).
T2 sequence (Q7RTT9 whole entry): T1 sequence (Q7RTT9 whole entry)
The experiment in a line: in vitro. The settings on record: not told, pH 6.

Series [4] addresses T2, PMAT (equilibrative nucleoside transporter 4). The experiment in a line: Increase of human PMAT-mediated drug uptake expressed in Xenopus laevis oocytes in NaCl buffer at pH 6 at 100 uM after 60 mins relative to control. Conditions: Xenopus laevis oocytes expressing human PMAT.
The target is the same in series [5]. Kind of series: in vitro. The settings on record: not told, pH 6. This is another data set of the same source.

The results in this text go back to ChEMBL document CHEMBL3526039, “Electrophysiological characterization of the polyspecific organic cation transporter plasma membrane monoamine transporter” (Drug Metab Dispos, 2012).

Regarding `CN1CC=C(c2ccccc2)CC1`, the Activity in series [1] is recorded as -5.67 nanoampere; in series [2], -62.7 nanoampere.
`NC12CC3CC(CC(C3)C1)C2` [AMANTADINE]: the Activity was -7.26 nanoampere in series [1] and -21.2 nanoampere in series [2].
Regarding `NCCc1c[nH]cn1` [HISTAMINE], the Activity is -30.5 nanoampere in series [1] and -110 nanoampere in series [2]. For the same compound, the Km in series [3] and in series [5] was 10 mM in each case. Further, in series [4], the uptake ratio at 1 h, 100 µM worked out at 2.
Regarding `CN(C)C(=N)N=C(N)N` [METFORMIN], the Activity was -2.02 nanoampere in series [1] and -38 nanoampere in series [2].
In the case of `CN1CCC[C@H]1c1cccnc1` [NICOTINE], the Activity in series [1] was -6.3 nanoampere; in series [2] it was -75.7 nanoampere.
Regarding `CC[N+](CC)(CC)CC` [TETRYLAMMONIUM], the Activity in series [1] is on record as -0.627 nanoampere; in series [2], -11.7 nanoampere.
